We go through 1 substance from patent US20140343095A1, “Methods of Diagnosing and Treating Multiple Sclerosis” (The Brigham and Women's Hospital, Inc., priority 2009, published 2014).

The subject of experiment [1] is microglia, macrophages or astrocytes. In words: TNF-α, CCL-2 and NO secretion by microglia, macrophages or astrocytes. The class given is cell-based, mouse. The note with it: microglia, macrophages or astrocytes incubated with 15-HC. Here is the method:
FIGS. 4A-D show the results of activation of microglia, macrophages and astrocytes by 15-HC. 4A, a bar graph showing PARP-1 activity in a cell-free system where recombinant PARP-1 was incubated with DNA which as been pretreated with 15-HC or 7-KC. Non-pretreated DNA was used as a negative control and ssb-DNA as a positive control. Data is shown as Mean±SEM. 4B, a pair of bar graphs showing PARP-1 activity measured in microglia, macrophages or astrocytes incubated with 15-HC or 7-KC. The data is shown as the fold of change between vehicle and lipid-treated cells (Mean±SEM). 4C, a pair of bar graphs showing percent inhibition of PARP-1 activity in microglia, macrophages or astrocytes activated with 15-HC or 7-KC […] in the presence of 5-AIQ. 4D, a table showing levels of TNF-α, CCL-2 and NO secretion by 15-HC or 7-KC treated microglia, macrophages or astrocytes (Mean±SEM).
The effect of 15-HC on the activity of cellular PARP-1 was then investigated. […] Thus, 15-HC activates microglia, macrophages and astrocytes through a PARP-1-dependent mechanism.

The subject of experiment [2] is TLR signaling proteins (TAK1, IRAK, Akt, p38-MAPK, PyK2, PKC, PI3K, ERK1/2). In words: Reverse protein arrays / western blot of signaling after 15-HC. The class given is cell-based, mouse. The note with it: microglia or macrophage cells, 1 μg/ml 15-HC. Here is the method:
5A, a bar graph showing the time course of microglial PARP-1 activation by 15-oxysterols or 7-KC. PARP-1 activity is shown as Mean±SEM. 5B, a set of eight bar graphs showing signaling pathways activated by 15-HC. Microglial cells were stimulated with 15-HC and lysed at 1, 5, and 15 minutes. Signal transduction arrays were made with the lysates and probed with phospho-specific antibodies. 15a-HC increases the phosphorylation of TAK1 (top right), IRAK (top left), Akt (second row, left), p38 MAPK (second row, right), Pyk2 (third row, left), PKC (third row, right), PI3K (bottom row, left), and Erk1/2 (bottom row, right). (Mean±SEM) 5C, a bar graph showing activation of microglial PARP-1 by 15-HC in the presence of kinase inhibitors (Mean±SEM). […]
FIG. 8 is a set of eight pairs of bolts and bar graphs showing blockade of 15-HC triggered signaling pathways with blocking antibodies to TLR2. Microglial cells were incubated with […] of TLR2 blocking antibody or isotype control 45 minutes prior the addition of 15-HC to the medium and signal transduction events were analyzed by western blot. […]
The C8B4 microglial cell line, C8-D1A astrocytes and Raw 264.7 macrophages were purchased from ATCC (Manassas, Va., USA). […] Slides were then probed, processed and analyzed as previously described (Chan et al., Nat Med 10, 1390-1396 (2004)).

Another experiment relates to PARP-1. In words: FACS PARP-1 activity in innate and adaptive immune cells treated with HSP60 or 15-HC. The note with it: HSP60 1, 5, 10 ng/ml, 15-HC 1, 5, 10 ug/ml. Type of experiment: cell-based, human. The source says:
FIGS. 17A-C are bar graphs showing that 15-HC, but not HSP60, activates PARP-1 in cells of the innate immune system. Mean PARP-1 activity as determined by FACS in classical monocytes (17A), inflammatory monocytes (17B) and dendritic cells (17C) of healthy controls (HC) treated with activated with HSP60, 15-HC or left untreated. The data are shown as mean fluorescence intensity (MFI)±SD of 5 samples/group.
FIGS. 18A-C are bar graphs showing that both 15-HC and HSP60 activate PARP-1 in cells of the adaptive immune system. Mean PARP-1 activity as determined by FACS in CD4+ T cells (18A), CD8+ T cells (18B) and B cells (18C) of healthy controls (HC) treated with activated with HSP60, 15-HC or left untreated. The data are shown as mean fluorescence intensity (MFI)±SD of 5 samples/group.
A new FACS-based method was developed to detect PARP-1 activation based on the intracellular detection of the PARP-1 product PAR with specific antibodies. Briefly, the cells were incubated with antibodies to CD16/32 to block unspecific antibody binding, and then stained for surface markers. […] The samples were then analyzed by FACS.
To investigate whether the increased activity of the TLR2/PARP-1 axis in SPMS patients resulted from increased levels of TLR2 ligands, the levels of 15-HC and HSP60 were measured in serum samples from healthy controls, RRMS and SPMS patients. […]

Regarding 15-hydroxycholestene [15-HC], the “secretion of NO, CCL-2 and TNF-α” value in experiment [1] is listed as “resulted in the secretion”. The “phosphorylation of TAK1, IRAK, Akt, p38-MAPK, PyK2, PKC, PI3K and ERK1/2” value in experiment [2] is “resulted in the phosphorylation”. In addition, in the experiment on PARP-1 (CD4+ T cells, CD8+ T cells, B cells of healthy controls), the “PARP-1 activation in cells of the adaptive immune system (FIG. 18)” value is “could activate”. In addition, in the experiment on PARP-1 (classical monocytes, inflammatory monocytes, dendritic cells of healthy controls), the “PARP-1 activation in cells of the innate immune system (FIG. 17)” value is given as “only 15-HC could activate”.
